Data on 20 compounds can be found in patent US8877944B2, “3-oxo-2,3-dihydro-1H-isoindole-4-carboxamides as PARP inhibitors” (Nerviano Medical Sciences S.R.L., priority 2009, dated 2014).

Structures are written as SMILES.

The target of one assay is PARP-1 FL (Homo sapiens (Human), UniProt P09874). In words: Fluorescence polarization probe displacement assay, PARP-1. The assay is classed as binding. The conditions noted are these: for Kd: compound P1 as the probe, 250 nM PARP-1; for DC50: half maximal displacement concentration. For orientation: Fluorescence polarisation rises when a labelled molecule tumbles more slowly, as on binding a larger partner.
Sequence of PARP-1 FL (P09874 whole entry): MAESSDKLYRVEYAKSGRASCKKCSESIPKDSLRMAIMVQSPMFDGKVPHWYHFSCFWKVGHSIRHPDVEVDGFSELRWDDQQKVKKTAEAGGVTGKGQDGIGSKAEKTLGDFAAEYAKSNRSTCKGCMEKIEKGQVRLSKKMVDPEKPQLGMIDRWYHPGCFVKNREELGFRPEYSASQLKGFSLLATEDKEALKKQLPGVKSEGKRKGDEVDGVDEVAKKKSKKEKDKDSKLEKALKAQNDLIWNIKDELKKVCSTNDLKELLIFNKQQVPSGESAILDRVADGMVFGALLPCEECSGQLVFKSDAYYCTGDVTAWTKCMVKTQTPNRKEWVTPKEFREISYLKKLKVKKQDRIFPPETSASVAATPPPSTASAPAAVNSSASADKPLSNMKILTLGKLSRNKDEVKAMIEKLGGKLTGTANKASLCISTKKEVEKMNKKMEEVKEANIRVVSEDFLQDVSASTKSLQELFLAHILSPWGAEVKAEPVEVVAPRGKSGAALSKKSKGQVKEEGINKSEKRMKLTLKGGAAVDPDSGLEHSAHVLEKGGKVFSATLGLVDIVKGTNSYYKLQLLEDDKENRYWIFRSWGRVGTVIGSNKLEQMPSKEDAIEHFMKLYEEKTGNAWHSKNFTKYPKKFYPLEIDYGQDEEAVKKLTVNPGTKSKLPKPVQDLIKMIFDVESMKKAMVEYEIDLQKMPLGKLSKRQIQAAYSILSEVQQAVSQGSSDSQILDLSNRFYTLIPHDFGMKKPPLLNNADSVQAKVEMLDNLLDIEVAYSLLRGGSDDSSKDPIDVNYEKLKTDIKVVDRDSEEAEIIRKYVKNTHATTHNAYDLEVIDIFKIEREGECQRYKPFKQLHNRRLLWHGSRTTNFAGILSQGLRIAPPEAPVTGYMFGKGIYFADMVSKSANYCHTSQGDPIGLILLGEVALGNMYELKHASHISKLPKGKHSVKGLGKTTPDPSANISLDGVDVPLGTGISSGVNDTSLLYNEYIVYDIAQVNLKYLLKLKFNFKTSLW

A further assay addresses PARP-2 FL (Homo sapiens (Human), UniProt Q9UGN5). The experiment in a line: Fluorescence polarization probe displacement assay, PARP-2. The assay is classed as binding. Particulars: read-out: PARP-2 DC50; half maximal displacement concentration.
Assay [1] relates to PAR formation in HeLa cells. The experiment in a line: Cellular PAR assay: inhibition of hydrogen peroxide induced PAR formation. The conditions noted are these: Homo sapiens, read-out: PAR assay IC50.
Procedure: Compounds potencies were evaluated by measuring the inhibition of poly (ADP-ribose) (PAR) chains formation as a marker for PARP-1 inhibition.
Cellular activity of PARP-1 inhibitors was assessed by measuring the inhibition of the hydrogen peroxide induced PAR formation in HeLa cells (ECACC). Cellular PAR levels were measured by immunocytochemistry, and quantified using an ArrayScan vTi instrument (Cellomics Thermo Scientific).
Test compounds were then added at the required concentration for 30′. […] Concentration curves were prepared in MEM/10% FCS from compound stocks in DMSO, and final DMSO concentration was 0.002% (v/v). Duplicate wells for each concentration point were prepared with a typical highest compound concentration of 20 μM and serial dilution 1:3. […] Non-specific binding sites were blocked by incubating wells for 30 min in PBS containing 5% (w/v) FBS 0.05% tween20. […] After washing further 3 times in PBS, cellular PAR immunoreactivity was assessed using the ArrayScan vTi instrument, with a Zeiss 10×0.5 N.A. objective, and applying the Cytotoxicity.V3 algorithm (Cellomics/Thermo Fisher) with a XF100 filter. At least 10 fields, corresponding to at least 900 cells, were read for each well.
The following formula is used: IC50=Bottom+(Top-Bottom)/(1+10^((LogEC50−X))); X is the logarithm of concentration. IC50 is the response; IC50 starts at Bottom and goes to Top with a sigmoid shape.

Sequence of PARP-2 FL (Q9UGN5 whole entry): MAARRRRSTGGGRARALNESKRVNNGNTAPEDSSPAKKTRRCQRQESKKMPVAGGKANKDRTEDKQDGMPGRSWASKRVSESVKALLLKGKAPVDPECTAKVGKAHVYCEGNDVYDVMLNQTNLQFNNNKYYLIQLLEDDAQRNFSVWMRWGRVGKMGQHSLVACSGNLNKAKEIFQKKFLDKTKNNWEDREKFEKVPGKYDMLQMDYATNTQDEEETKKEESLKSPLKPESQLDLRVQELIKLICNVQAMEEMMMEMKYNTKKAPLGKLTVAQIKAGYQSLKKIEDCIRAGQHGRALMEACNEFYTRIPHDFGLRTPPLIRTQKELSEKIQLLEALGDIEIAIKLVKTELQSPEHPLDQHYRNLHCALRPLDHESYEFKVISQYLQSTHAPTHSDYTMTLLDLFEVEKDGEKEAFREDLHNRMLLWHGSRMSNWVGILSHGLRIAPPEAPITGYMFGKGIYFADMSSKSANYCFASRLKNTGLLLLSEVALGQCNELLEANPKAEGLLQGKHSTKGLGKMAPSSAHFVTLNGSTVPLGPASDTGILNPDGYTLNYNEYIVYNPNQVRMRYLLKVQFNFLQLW
Procedure for PARP-1 FL: (§1) Affinity evaluation of the tested compounds and their selectivity with respect to the different PARP isoforms of interest was assessed in a displacement assay.
(§2) The polarization signal can be measured, e.g., by a plate reader such as the Saphire2 (Tecan). The displacement ability of the test compound is in correlation with the compound affinity for the NAD pocket of the enzyme.
(§3) The assay performances were then evaluated (Z′ factor) as well as the displacement of the probe by its scaffold and known commercially available PARP inhibitors. In all of the experiments, the polarization signal was measured using a Saphire2 plate reader (Tecan). Data analysis was performed using Dynafit software. In particular, titration data were fitted to the following equilibria: Enzyme+probe <==> Complex Enzyme-probe, while displacement data were fitted to the following equilibria: Enzyme+probe <==> Complex Enzyme-probe, Enzyme+Compound <==> Complex Enzyme-Compound, whereby binding of probe and compound on the enzyme are mutually exclusive (pure competitive mechanism). Displacement data were also fitted using Excell spreadsheet (Microsoft Inc. Seattle, USA) to a four parameter logistic model (4PL), or Hill-Slope model to calculate DC50s where the DC50 value represents the compound concentration at which the polarization signal is diminished by 50% compared to untreated controls.
(§4) KD values, are the average of three independent experiments.
Procedure for PARP-2 FL: as §1, §2, §3, §4

`CCCOc1ccc(CN2CCC(N3Cc4cccc(C(N)=O)c4C3=O)CC2)cc1` [Compound 37, 3-oxo-2-[1-(4-propoxybenzyl)piperidin-4-yl]-2,3-dihydro-1H-isoindole-4-carboxamide]: the Kd on PARP-1 FL is < 30 nM. Further, the DC50 on PARP-1 FL was < 250 nM; at PARP-2 FL, > 10000 nM. Also, the IC50 in assay [1] was 260 nM.

Consider `CCOc1cccc(CN2CCC(N3Cc4cccc(C(N)=O)c4C3=O)CC2)c1` [Compound 40, 2-[1-(3-Ethoxybenzyl)piperidin-4-yl]-3-oxo-2,3-dihydro-1H-isoindole-4-carboxamide], for which, on PARP-1 FL, the Kd came out at 110 nM and the DC50 is < 250 nM. For the same compound, the DC50 at PARP-2 FL is > 10000 nM. Besides, in assay [1], the IC50 was 620 nM.

For the compound `NC(=O)c1cccc2c1C(=O)N(C1CCN(Cc3ccc4cc[nH]c4c3)CC1)C2` [Compound 30, 2-[1-(1H-indol-6-ylmethyl)piperidin-4-yl]-3-oxo-2,3-dihydro-1H-isoindole-4-carboxamide], the DC50 at PARP-1 FL is < 250 nM; at PARP-2 FL, 5970 nM. For the same compound, in assay [1], the IC50 is 300 nM.

As for `COc1ccc(CN2CCC(N3Cc4cccc(C(N)=O)c4C3=O)CC2)cc1` [Compound 39, 2-[1-(4-Methoxybenzyl)piperidin-4-yl]-3-oxo-2,3-dihydro-1H-isoindole-4-carboxamide], at PARP-1 FL, the Kd is < 30 nM and the DC50 is < 250 nM. Also, the DC50 at PARP-2 FL was > 10000 nM. The IC50 in assay [1] worked out at 330 nM.

Consider `NC(=O)c1cccc2c1C(=O)N(C1CCN(Cc3ccc(F)cc3F)CC1)C2` [Compound 17, 2-[1-(2,4-Difluorobenzyl)piperidin-4-yl]-3-oxo-2,3-dihydro-1H-isoindole-4-carboxamide], for which, on PARP-1 FL, the Kd was < 30 nM and the DC50 is < 250 nM. Besides, the DC50 at PARP-2 FL is > 10000 nM. Besides, the IC50 in assay [1] turned out to be 5770 nM.

With `Cc1ccc(CN2CCC(N3Cc4cccc(C(N)=O)c4C3=O)CC2)s1` [Compound 45, 2-{1-[(5-Methylthiophen-2-yl)methyl]piperidin-4-yl}-3-oxo-2,3-dihydro-1H-isoindole-4-carboxamide], on PARP-1 FL, the equilibrium dissociation constant (Kd) was < 30 nM and the DC50 was < 250 nM. Besides, the DC50 on PARP-2 FL is > 10000 nM. Also, the IC50 in assay [1] came out at 360 nM.

For the compound `Cn1cc(CN2CCC(N3Cc4cccc(C(N)=O)c4C3=O)CC2)cn1` [Compound 33, 2-{1-[(1-Methyl-1H-pyrazol-4-yl)methyl]piperidin-4-yl}-3-oxo-2,3-dihydro-1H-isoindole-4-carboxamide], the DC50 at PARP-1 FL was < 250 nM; at PARP-2 FL it was > 10000 nM. The IC50 in assay [1] was 1100 nM.

For `Cc1ncsc1CN1CCC(N2Cc3cccc(C(N)=O)c3C2=O)CC1` [Compound 26, 2-{1-[(4-Methyl-1,3-thiazol-5-yl)methyl]piperidin-4-yl}-3-oxo-2,3-dihydro-1H-isoindole-4-carboxamide], on PARP-1 FL, the dissociation constant Kd is < 30 nM and the DC50 is < 250 nM. The DC50 at PARP-2 FL is 6500 nM. Besides, the half-inhibitory concentration (IC50) in assay [1] is 200 nM.

For the compound `NC(=O)c1cccc2c1C(=O)N(CCCN1CCN(c3cccc(Cl)c3)CC1)C2` [Compound 46, 2-{3-[4-(3-Chloro-phenyl)-piperazin-1-yl]-propyl}-3-oxo-2,3-dihydro-1H-isoindole-4-carboxylic acid amide], the DC50 at PARP-1 FL is < 250 nM; on PARP-2 FL it was 1460 nM. Further, the IC50 in assay [1] was 400 nM.

On to `CC(C)Oc1ccccc1CN1CCC(N2Cc3cccc(C(N)=O)c3C2=O)CC1` [Compound 41, 3-oxo-2-{1-[2-(propan-2-yloxy)benzyl]piperidin-4-yl}-2,3-dihydro-1H-isoindole-4-carboxamide], for which the values for the DC50 on PARP-1 FL and on PARP-2 FL were 470 nM and > 10000 nM, respectively.

Regarding `NC(=O)c1cccc2c1C(=O)N(C1CCN(CC3CCN(Cc4ccccc4)CC3)CC1)C2` [Compound 27, 2-{1-[(1-Benzylpiperidin-4-yl)methyl]piperidin-4-yl}-3-oxo-2,3-dihydro-1H-isoindole-4-carboxamide], at PARP-1 FL, the Kd was < 30 nM and the DC50 amounted to 260 nM. The DC50 on PARP-2 FL is > 10000 nM. For the same compound, the IC50 in assay [1] is 320 nM.

Turning to `CC(C)c1ccc(CN2CCC(N3Cc4cccc(C(N)=O)c4C3=O)CC2)cc1` [Compound 38, 3-oxo-2-{1-[4-(propan-2-yl)benzyl]piperidin-4-yl}-2,3-dihydro-1H-isoindole-4-carboxamide], on PARP-1 FL, the Kd was < 30 nM. In addition, the DC50 on PARP-1 FL is < 250 nM; at PARP-2 FL, > 10000 nM. For the same compound, the IC50 in assay [1] was 260 nM.

As to `NC(=O)c1cccc2c1C(=O)N(C1CCN(Cc3ccc4ccccc4n3)CC1)C2` [Compound 16, 3-oxo-2-[1-(quinolin-2-ylmethyl)piperidin-4-yl]-2,3-dihydro-1H-isoindole-4-carboxamide], on PARP-1 FL, the Kd was < 30 nM and the DC50 was < 250 nM. At PARP-2 FL, the DC50 was determined as 3200 nM.

For the compound `COC[C@H]1CC[C@H](N2CCC(N3Cc4cccc(C(N)=O)c4C3=O)CC2)CC1` [Compound 6, 2-{1-[Trans-4-(methoxymethyl)cyclohexyl]piperidin-4-yl}-3-oxo-2,3-dihydro-1H-isoindole-4-carboxamide], on PARP-1 FL, the Kd was < 30 nM and the DC50 is < 250 nM. Besides, the DC50 at PARP-2 FL was > 10000 nM. Moreover, in assay [1], the IC50 was determined as 2300 nM.

For the compound `NC(=O)c1cccc2c1C(=O)N(C1CCN(Cc3ccccc3F)CC1)C2` [Compound 12, 2-[1-(2-Fluorobenzyl)piperidin-4-yl]-3-oxo-2,3-dihydro-1H-isoindole-4-carboxamide], on PARP-1 FL, the Kd was < 30 nM and the DC50 was < 250 nM. The DC50 on PARP-2 FL is > 10000 nM.

Regarding `COC[C@H]1CC[C@@H](N2CCC(N3Cc4cccc(C(N)=O)c4C3=O)CC2)CC1` [Compound 5, 2-{1-[Cis-4-(methoxymethyl)cyclohexyl]piperidin-4-yl}-3-oxo-2,3-dihydro-1H-isoindole-4-carboxamide], at PARP-1 FL, the Kd was found to be 40 nM and the DC50 is < 250 nM. Moreover, the DC50 on PARP-2 FL is > 10000 nM. For the same compound, in assay [1], the IC50 stood at 4600 nM.

In the case of `NC(=O)c1cccc2c1C(=O)N(C1CCN(Cc3cccc4[nH]ccc34)CC1)C2` [Compound 28, 2-[1-(1H-indol-4-ylmethyl)piperidin-4-yl]-3-oxo-2,3-dihydro-1H-isoindole-4-carboxamide], at PARP-1 FL, binding was put at a Kd of 34 nM and the DC50 is < 250 nM. Also, the IC50 in assay [1] was 190 nM.

For the compound `CCc1ccc(CN2CCC(N3Cc4cccc(C(N)=O)c4C3=O)CC2)cc1` [Compound 43, 2-[1-(4-Ethylbenzyl)piperidin-4-yl]-3-oxo-2,3-dihydro-1H-isoindole-4-carboxamide], at PARP-1 FL, the Kd was < 30 nM and the DC50 was < 250 nM. The DC50 at PARP-2 FL is > 10000 nM. In assay [1], the IC50 turned out to be 2660 nM.

Regarding `NC(=O)c1cccc2c1C(=O)N(C1CCN(Cc3ccc(F)cc3)CC1)C2` [Compound 11, 2-[1-(4-Fluorobenzyl)piperidin-4-yl]-3-oxo-2,3-dihydro-1H-isoindole-4-carboxamide], on PARP-2 FL, the DC50 is > 10000 nM.

Consider `NC(=O)c1cccc2c1C(=O)N(C1CCN(Cc3cccc(F)c3)CC1)C2` [Compound 13, 2-[1-(3-Fluorobenzyl)piperidin-4-yl]-3-oxo-2,3-dihydro-1H-isoindole-4-carboxamide], for which the Kd at PARP-1 FL was < 30 nM. In addition, the DC50 is < 250 nM on PARP-1 FL and > 10000 nM on PARP-2 FL.

A word on the Kd: it is the free concentration of one partner at which half of the binding sites on the other are occupied at equilibrium, for simple one-to-one binding. The term IC50 denotes the concentration needed to halve the response being measured.
